{"source": "patent US12643906B2", "about": "“Fused aza-heterocyclic amide compound and use thereof” (CSPC ZHONGQI PHARMACEUTICAL TECHNOLOGY (SHIJIAZHUANG) CO., …, priority 2020, dated 2026)", "key": {"ROS1": {"molecular_target": "T1, ROS1 (Homo sapiens, UniProt P08922)", "T1 construct": "purchased Carna 08-163", "experiment": "Kinase inhibition assay with fluorescein labeled peptide, ROS1", "type": "biochemical", "procedure": "(§1) Compounds were diluted to a certain concentration in DMSO with 4-fold gradients. The compound with a certain concentration, an enzyme solution and DMSO were added into a 384-well plate, and the plate was incubated at room temperature for 10 min. […] The plate was subjected to reading."}, "ALK": {"molecular_target": "T2, ALK (Homo sapiens, UniProt Q9UM73)", "T2 construct": "purchased Carna 08-105", "experiment": "Kinase inhibition assay with fluorescein labeled peptide, ALK", "type": "biochemical", "procedure": "as §1"}, "Ba/F3 LMNA-NTRK1-G667C": {"molecular_target": "T3, Ba/F3 LMNA-NTRK1-G667C (Homo sapiens, UniProt P04629, G667C, cells depend on it)", "T3 construct": "fused on or other part: P02545 (Prelamin-A/C)", "experiment": "In vitro cell proliferation inhibition (MTT)", "type": "cell-based, murine", "details": "72 h, read-out: IC50 Ba/F3 LMNA-NTRK1-G667C", "procedure": "(§2) Cells in the logarithmic growth phase were harvested and counted using a […]. The cell suspension with a certain density was pipetted uniformly and seeded into a 96-well plate with each well of 100 μL, and shaken to make the cells uniformly disperse into the wells. 100 μL of compound solution with certain concentration gradient was added into each well, and 3 duplicate wells were set for each concentration. The plate was cultured in a CO2 incubator at 37° C. for 72 h. 20 μL of MTT working solution (5 mg/mL) was added into each well, and the plate was placed at 37° C. for 4 h, and centrifuged at 1000 rpm for 5 min by a plate centrifuge. After 180 μL of culture medium was discarded, the plate was added with 150 μL of DMSO, and mixed well with a microplate shaker, the plate bottom was wiped, and optical density (OD) at 550 nm was detected with a microplate reader."}, "Ba/F3 ETV6-NTRK3-G623R": {"molecular_target": "T4, Ba/F3 ETV6-NTRK3-G623R (Homo sapiens, UniProt Q16288, G623R, cells depend on it)", "T4 construct": "fused on or other part: P41212 (Transcription factor ETV6)", "experiment": "In vitro cell proliferation inhibition (MTT)", "type": "cell-based, murine", "details": "72 h, read-out: IC50 Ba/F3 ETV6-NTRK3-G623R", "procedure": "as §2"}, "Ba/F3 ETV6-NTRK2": {"molecular_target": "T5, Ba/F3 ETV6-NTRK2 (Homo sapiens, UniProt Q16620)", "T5 construct": "fused on or other part: P41212 (Transcription factor ETV6)", "experiment": "In vitro cell proliferation inhibition (MTT)", "type": "cell-based, murine", "details": "72 h, read-out: IC50 Ba/F3 ETV6-NTRK2", "procedure": "as §2"}, "Ba/F3 LMNA-NTRK1-G595R": {"molecular_target": "T6, Ba/F3 LMNA-NTRK1-G595R (Homo sapiens, UniProt P04629, G595R, cells depend on it)", "T6 construct": "fused on or other part: P02545 (Prelamin-A/C)", "experiment": "In vitro cell proliferation inhibition (MTT)", "type": "cell-based, murine", "details": "72 h, read-out: IC50 Ba/F3 LMNA-NTRK1-G595R", "procedure": "as §2"}, "Ba/F3 LMNA-NTRK1": {"molecular_target": "T7, Ba/F3 LMNA-NTRK1 (Homo sapiens, UniProt P04629)", "T7 construct": "fused on or other part: P02545 (Prelamin-A/C)", "experiment": "In vitro cell proliferation inhibition (MTT)", "type": "cell-based, murine", "details": "72 h, read-out: IC50 Ba/F3 LMNA-NTRK1", "procedure": "as §2"}, "TRKB": {"molecular_target": "T8, TRKB (Homo sapiens, UniProt Q16620)", "T8 construct": "purchased Bioduro", "experiment": "HTRF kinase inhibition assay, TRKB", "type": "biochemical", "procedure": "(§3) The compound to be tested with a certain concentration gradient and an enzyme solution were successively added into a plate (kinase buffer (1× kinase buffer (Cisbio, Cat #62EZBFDD), pH 7.5; 5 mM MgCl2, 1 mM DTT) was added into negative control wells), and the compound plate was centrifuged at 1000 rpm for 30 seconds. The plate was sealed and incubated in a Constant Temperature Incubator at 25° C. for 30 min. A substrate solution containing TK-Sub-biotin (Cisbio, Cat #61TKOBL) and ATP (Sigma, Cat #R0441) was prepared, the substrate solution was added into a 384-well plate, and the plate was centrifuged at 1000 rpm for 30 seconds. The plate was sealed and incubated in a Constant Temperature Incubator at 25° C. for 60 min.\n(§4) TK antibody and XL665 were diluted, mixed and added into the assay plate, and the plate was centrifuged at 1000 rpm for 30 seconds. The plate was sealed and incubated in a Constant Temperature incubator Incubator at 25° C. for 60 min. The assay plate was placed on an Envision reader for reading.\n(§5) Data were fitted in XLFit excel add-in version 5.4.0.8 to obtain IC50 values."}, "TRKC": {"molecular_target": "T9, TRKC (Homo sapiens, UniProt Q16288)", "T9 construct": "purchased Bioduro", "experiment": "HTRF kinase inhibition assay, TRKC", "type": "biochemical", "procedure": "as §3\nas §4, with “reading. (HTRF 665/615 ratio: signal value at 665 nm/signal value at 615 nm) Inhibition=(rationegative control well−ratiocompound well)/(rationegative control well−ratioenzyme-free control well)×100% 1.3 Data Analysis and Curve Fitting” for “reading.”\nas §5"}, "TRKA(G667C)": {"molecular_target": "T10, TRKA(G667C) (Homo sapiens, UniProt P04629, G667C)", "T10 construct": "purchased signalchem", "experiment": "HTRF kinase inhibition assay, TRKA(G667C)", "type": "biochemical", "procedure": "as §3\nas §4, with “reading. (HTRF 665/615 ratio: signal value at 665 nm/signal value at 615 nm) Inhibition=(rationegative control well−ratiocompound well)/(rationegative control well−ratioenzyme-free control well)×100% 1.3 Data Analysis and Curve Fitting” for “reading.”\nas §5"}, "TRKA(G595R)": {"molecular_target": "T11, TRKA(G595R) (Homo sapiens, UniProt P04629, G595R)", "T11 construct": "purchased signalchem", "experiment": "HTRF kinase inhibition assay, TRKA(G595R)", "type": "biochemical", "procedure": "as §3\nas §4, with “reading. (HTRF 665/615 ratio: signal value at 665 nm/signal value at 615 nm) Inhibition=(rationegative control well−ratiocompound well)/(rationegative control well−ratioenzyme-free control well)×100% 1.3 Data Analysis and Curve Fitting” for “reading.”\nas §5"}, "Ba/F3 ETV6-NTRK3-G696A": {"molecular_target": "T12, Ba/F3 ETV6-NTRK3-G696A (Homo sapiens, UniProt Q16288, G696A, cells depend on it)", "T12 construct": "fused on or other part: P41212 (Transcription factor ETV6)", "experiment": "In vitro cell proliferation inhibition (MTT)", "type": "cell-based, murine", "details": "72 h, read-out: IC50 Ba/F3 ETV6-NTRK3-G696A", "procedure": "• Source of 6 kinds of cell lines for the test: KYinno Biotechnology (Beijing) Co., Ltd. • Cell type: murine B cells • Culture medium: RPMI-1640+10% FB S 2. Test Method\nas §2"}}}
{"smiles": "O=C(Nc1ccc(N2CCN(C(=O)CO)CC2)cc1)c1cnn2ccc(N3C[C@@H](F)C[C@@H]3c3cc(F)ccc3F)nc12", "note": "[Compound 4, 5-((2R,4S)-2-(2,5-difluorophenyl)-4-fluoropyrrolidin-1-yl)-N-(4-(4-(2-hydroxyacetyl)piperazin-1-yl)phenyl)pyrazolo[1,5-a]pyrimidine-3-carboxamide]", "values": [{"measurement": "IC50", "setting": "ROS1", "result": 0.19, "unit": "nM"}, {"measurement": "IC50", "setting": "ALK", "result": 22, "unit": "nM"}, {"measurement": "GI50", "setting": "Ba/F3 LMNA-NTRK1-G667C", "result": 2.21, "unit": "nM"}, {"measurement": "GI50", "setting": "Ba/F3 ETV6-NTRK3-G623R", "result": 0.674, "unit": "nM"}, {"measurement": "GI50", "setting": "Ba/F3 ETV6-NTRK2", "result": 1.77, "unit": "nM"}, {"measurement": "GI50", "setting": "Ba/F3 LMNA-NTRK1-G595R", "result": 0.166, "unit": "nM"}, {"measurement": "GI50", "setting": "Ba/F3 LMNA-NTRK1", "result": 0.729, "unit": "nM"}, {"measurement": "IC50", "setting": "TRKB", "result": 0.986, "unit": "nM"}, {"measurement": "IC50", "setting": "TRKC", "result": 0.443, "unit": "nM"}, {"measurement": "IC50", "setting": "TRKA(G667C)", "result": 0.183, "unit": "nM"}, {"measurement": "IC50", "setting": "TRKA(G595R)", "result": "< 0.169", "unit": "nM"}, {"measurement": "GI50", "setting": "Ba/F3 ETV6-NTRK3-G696A", "result": 0.466, "unit": "nM"}]}
